Experimental findings from US9556231B2, “Beta-hairpin peptidomimetics as CXC4 antagonists” (POLYPHOR AG, priority 2011, dated 2017) are described below.

Bridge positions count the residues as written; N and C are the ends. Square brackets hold non-standard residues; d marks the D form. Peptide text beside a SMILES is read from it. Lys(iPr) = CC(C)NCCCC[C@H](N)C(=O)O; Orn(iPr) = CC(C)NCCC[C@H](N)C(=O)O

Data set [1] is described as follows: Cytotoxicity, MTT reduction assay, HELA cells. The format is cell-based. The note with it: human; MTT, 48 h, up to 50 μM; read-out: Cytotoxicity Hela Cells GI50. On the procedure:
Namalwa cells (CXCR4 natively expressing non-adherent cells, ATCC CRL-1432) were cultured in RPMI1640 plus 10% FBS, and pen/strept. HELA cells were maintained in RPMI1640 plus 10% FBS, pen/strept and 2 mM L-glutamine. Cos-7 cells were grown in DMEM medium with […] glucose supplemented with 10% FCS, pen/strept and 2 mM L-glutamine. All cell lines were grown at 37° C. at 5% CO2. Cell media, media supplements, PBS-buffer, HEPES, antibiotic/antimycotic, pen/strept, non essential amino acid, L-glutamine, β-mercaptoethanol and sera were purchased from Gibco (Pailsey, UK). All fine chemicals were supplied by Merck (Darmstadt, Germany).
The cytotoxicity of the peptides to HELA cells (Acc57) and COS-7 cells (CRL-1651) was determined using the MTT reduction assay (T. Mossman, J. Immunol. Meth. 1983, 65, 55-63; M. V. Berridge, A. S. Tan, Arch. Biochem. Biophys. 1993, 303, 474-482). Briefly, the method was as follows: 4000 HELA cells/well and 3400 COS-7 cells/well were seeded and grown in 96-well microtiter plates for 24 h at 37° C. at 5% CO2. Thereafter, time zero (Tz) was determined by MTT reduction (see below). The supernatant of the remaining wells was discarded, and fresh medium and compounds in serial dilutions (12.5, 25 and 50 μM, triplicates; 0 μM, blank) were pipetted into the wells. After incubation of the cells for 48 h at 37° C. at 5% CO2 the supernatant was discarded again and 100 μL MTT reagent (0.5 mg/mL in RPMI1640 and DMEM, respectively)/well was added. Following incubation at 37° C. for 2-4 h the media were aspirated and the cells were spiked (100 μL isopropanol/well). The absorbance of the solubilized formazan was measured at 595 nm (OD595peptide). For each concentration averages were calculated from triplicates. The percentage of growth was calculated as follows: (OD595peptide−OD595Tz)/(OD595blank−OD595Tz)×100%. The GI50 (Growth Inhibition) concentrations were calculated for each peptide by using a trend line function for the concentrations (50, 25, 12.5 and 0 μM), the corresponding percentages and the value 50, (=TREND (C50:C0,%50:%0,50).

Data set [2] in a line: Plasma stability, human plasma. The note with it: 37° C., 1440 min, read-out: human pl. cpd left at 1440 min. The format is in vitro ADME. On the procedure:
(§1) The stability of the peptides in human and mouse plasma was determined by applying the following method: 346.5 μL/deep well of freshly thawed human plasma (Basler Blutspende-dienst) and mouse plasma (Harlan Sera-Lab, UK), respectively, were spiked with 3.5 μL/well of compound dissolved in DMSO/H2O (90/10 [v/v], 1 mM, triplicate) and incubated at 37° C. At t=0, 15, 30, 60, 120, 240 and 1440 min aliquots of 50 μL were transferred to filtration plate wells containing 150 μL/well of 2% formic acid in acetonitrile. Following shaking for 2 min the occurred suspensions were filtrated by vacuum. 100 μL of each filtrate were transferred to a propylene microtiter plate and dried under N2. The residual solids were reconstituted by adding 100 μL/well of water/acetonitrile, 95/5 (v/v)+0.2% formic acid and analyzed by LC/MS as follows: Column: Waters, XBridge C18, mobile phases: (A) water+0.1% formic acid and (B) acetonitrile/water, 95/5 (v/v)+0.1% formic acid, gradient: 5%-100% (B) in 1.8 minutes, electrospray ionization, MRM detection (triple quadrupole). The peak areas were determined and triplicate values are averaged. The stability is expressed in percent of the initial value at t=0·(tx/t0×100). By using the TREND function of EXCEL (Microsoft Office 2003) T1/2 were determined.

The nature of data set [3]: Plasma stability, mouse plasma. The format is in vitro ADME. The note with it: 37° C. On the procedure:
as §1

A short description of data set [4]: Plasma protein binding. It is filed as in vitro ADME. The settings on record: human plasma, ultrafiltration 10 kDa. Here is the method: 495 μL aliquots of human plasma (Basler Blutspendedienst) as well as 495 μL aliquots of PBS were placed in individual deepwells of a polypropylene plate (Greiner) and spiked each with 5 μL of 1 mM solutions of peptides in 90% DMSO. After shaking the plate for 2 min at 600 rpm 150 μL aliquots of the plasma/peptide mixtures were transferred in triplicates to the polypropylene filter plate (10 kDa, Millipore) whereas 150 μL aliquots of the PBS/peptide mixtures were transferred either to the individual wells of the filter plate (filtered controls) or directly into the individual wells of the receiving plate (Greiner) (non-filtered controls). The plate sandwich consisting of filter and receiving plate was incubated for 1 h at 37° C. and subsequently centrifuged at 3220 g for 2 h at 15° C. The filtrates in the receiving plate were analysed by LC/MS as follows: Column: Waters, XBridge C18, mobile phases: (A) water+0.1% formic acid and (B) acetonitrile/water, 95/5 (v/v)+0.1% formic acid, gradient: 5%-100% (B) in 1.8 min, electrospray ionization, MRM detection (triple quadrupole). The peak areas were determined and triplicate values are averaged. The binding is expressed in percent of the filtered and non-filtered controls by 100−(100×T1h/Tctr). Finally the average of these values is calculated.

Broadly, the GI50 is the concentration at which growth is held to half of that of the control. Usually fraction unbound stands for the share of the substance not bound to proteins or other matrix. Read a low fraction unbound as little free substance. For the molecule `COc1ccc(C[C@@H]2NC(=O)[C@H](Cc3c[nH]cn3)NC(=O)[C@H](Cc3ccc(O)cc3)NC(=O)[C@@H]3CCCN3C(=O)[C@H]3CCCN3C(=O)[C@H](CCCCNC(C)C)NC(=O)[C@H](CCC(N)=O)NC(=O)[C@H](Cc3ccc(O)cc3)NC(=O)[C@@H]3CSSC[C@H](NC2=O)C(=O)N[C@@H](CO)C(=O)N[C@@H](C)C(=O)N[C@H](Cc2ccc(OC)cc2)C(=O)N[C@@H](CCCNC(C)C)C(=O)N[C@@H](CCCNC(=N)N)C(=O)N[C@@H](Cc2ccc(O)cc2)C(=O)N3)cc1` [Ex. 6, cyclo(-Tyr^1-His^2-Tyr(Me)^3-Cys^4-Ser^5-Ala^6-^DTyr(Me)^7-Orn(iPr)^8-Arg^9-Tyr^10-Cys^11-Tyr^12-Gln^13-Lys(iPr)^14-^DPro^15-Pro^16-), disulfide bond between Cys^4 and Cys^11] (cyclo(YHY(Me)CSA[dY](Me)[Orn(iPr)]RYCYQ[Lys(iPr)][dP]P); disulfide 4-11), in data set [1], the GI50 at 48 h was greater than 50 µM. In addition, the remaining at 24 h, 10 μM was 83% in data set [2] and 68% in data set [3] (1440 min, read-out: mouse pl. cpd left at 1440 min). In data set [3] (up to 1440 min), the “mouse pl. T1/2” value is 24 h. For the same molecule, the fraction unbound at 1 h, 10 μM in data set [4] is 0.37.
